Experimental data published in article PMC3717777 (Toxins, 2013).
Entries after “also recorded” stand apart in the source; their conditions may differ. Where two headings read alike, the source gives them in different places.

Assays:
(human) albumin = conditions: ochratoxin A to (human) albumin, ref [45], cited from earlier work
[1] = read-out: binding constant KD, aflatoxin B1; cited from earlier work
[2] = read-out: binding constant KD, aflatoxin B2; cited from earlier work
[3] = Solid phase microtitre plate binding assay with ochratoxin A-HRP; conditions: ochratoxin A-HRP serial dilutions, PBS pH 7.4, 1.5 h, room temperature, A 450 nm; for binding of ochratoxin A-HRP, amine-coupled peptide: amine coupling (NHS/EDC); for binding of ochratoxin A-HRP, thiol-coupled peptide: thiol coupling (SPDP)
Text: Solid phase binding assay provides a platform to test the binding capacity of the designed peptides to ochratoxin A in vitro. Each peptide sequence was immobilized to the surface of a functionally modified (R2-NH) microtitre plate via either amine coupling using N-hydroxysuccinimide (NHS)/N-(3-dimethylaminopropyl)-N'-ethylcarbodiimide (EDC) coupling chemistry or thiol coupling using a heterobifunctional crosslinker (N-Succinimidyl 3-(2-pyridyldithio) propionate (SPDP)) employing the terminal cysteine residues of the peptide sequences to allow for site-directed surface attachment. Enzyme-labelled ochratoxin A-HRP was added in a concentration-dependent manner to the immobilized peptides, and the absorbance signal (blank subtracted) was compared for both peptides and immobilization techniques, as shown in Figure 3.
To test the initial binding of the peptides with ochratoxin A, the peptides were immobilized to a (NH)-functionally modified polystyrene microtitre plate via: (1) amine-coupling using a NHS/EDC linker and (2) thiol-coupling using SPDP, a hetero-bifunctional cross-linker reagent with amine and sulfhydryl groups.
Amine coupling was performed as follows: 100 mg L^−1 of each peptide solution in 10 mM carbonate buffer pH 9.6 was incubated on the NH-wells for 30 min, then 200 mM EDC and 50 mM NHS (1:1 v/v) were added and incubated for one hour. The plates were washed using PBST and blocked using 0.1 M ethanolamine for 30 min. Thiol coupling was performed via the immobilization of 1.5 mg mL^−1 SPDP in phosphate buffer (PBS) pH 7.4 incubated for 30 min at room temperature. The peptides were added at 100 mg L^−1 in a phosphate buffer pH 8.0 and incubated for another two hours at room temperature. The plates were washed using PBST and blocked for one hour using 1 g L^−1 cysteine in 1 M NaCl and 0.1 M sodium acetate, pH 4.0.
The binding of ochratoxin A-HRP conjugate in phosphate buffer pH 7.4 was performed at decreasing serial dilutions and incubated with the immobilized peptides for 1.5 h. The zero reference was determined with ochratoxin-HRP alone on 0.1 M ethanolamine blocked wells without immobilized peptide. All incubations were performed at room temperature. Detection was performed, after washing the microtiter plates using PBST, with the chromogenic HRP-substrate TMB in ready-made solution containing hydrogen peroxide. The absorbance was read after 20 min at 450 nm.

[4] = SPR (Biacore 3000) binding of ochratoxin A-BSA to immobilised peptide or antibody; conditions: for Kd: Biacore 3000, CM5 chip, peptide immobilised by amine coupling, ochratoxin A-BSA 0.01–100 mg L^−1, HBS-EP pH 7.4, 25 °C, 1:1 Langmuir model, estimated; for on and off rates: Biacore 3000, ochratoxin A-BSA over immobilised ligand; for on and off rates / binding affinity (in words): HBS-EP pH 7.4, 25 °C; for binding affinity (in words): Biacore 3000, ochratoxin A-BSA
Text: (§1) To determine affinities for the peptide binding interaction, the peptides were immobilized on two adjacent flow cells onto a CM5 Biacore chip to a level of 251 RU (octapeptide) and 227 RU (13-mer peptide). This was in order to study the binding interaction between the peptides and ochratoxin A using a Biacore 3000. A commercial ochratoxin A-BSA conjugate was used as the analyte to obtain a significant signal response for a binding event. Initially, one saturating concentration of ochratoxin A-BSA conjugate (100 mg L^−1) was injected over each immobilized peptide ligand to confirm binding (Figure 4).
To establish the affinity of the interaction, decreasing ochratoxin A-BSA concentrations were injected onto the immobilized peptides surfaces (Figure 5).
The binding interaction analysis of the peptide receptor with ochratoxin A was carried out on a CM5 (carboxymethylated dextran) sensor chip at 25 °C. HBS-EP (0.01 M HEPES pH 7.4, 0.15 M NaCl, 3 mM EDTA, 0.005% Surfactant P20) was used as the running and dilution buffer. Peptides (100 mg L^−1 in 10 mM acetate buffer, pH 4.5) were immobilised using 0.4 M N-(3-dimethylaminopropyl)-N'-ethylcarbodiimide (EDC) and 0.1 M N-hydroxysuccinimide (NHS), applying amine coupling chemistry. In brief, a 1:1 mixture of NHS and EDC was injected as 5 μL min^−1 flow rate for 7 min, followed by injection of 75 µL peptide ligand (5 µL min^−1) for 15 min and blocking of residual binding sites with 1 M Ethanolamine, pH 8.3 (35 µL). To establish binding kinetics, various concentrations of ochratoxin A-BSA conjugate (0.01–100 mg L^−1, 60 µL in HBS-EP pH 7.4) were injected at 5 µL min^−1 over each immobilised peptide surface. BSA alone was injected as non-specific analyte control. Dissociation was monitored during 10 min without dissociating agents (flowing only running buffer). The kinetic parameters of the binding reactions were determined using BIAevaluation 3.2 software.

BSA = assay: SPR (Biacore 3000) non-specific binding control with BSA alone; conditions: immobilised peptide, BSA alone 100 mg L^−1
Text: as §1
Immobilization methods, especially via amine coupling, can reduce the activity of the immobilized molecule and, thus, have reduced binding capacity, which can be substantially different from the theoretical binding capacity. This is a common and known problem in binding interaction analysis. […]
The binding interaction analysis of the peptide receptor with ochratoxin A was carried out on a CM5 (carboxymethylated dextran) sensor chip at 25 °C. […] Dissociation was monitored during 10 min without dissociating agents (flowing only running buffer). The kinetic parameters of the binding reactions were determined using BIAevaluation 3.2 software.

[5] = Water solubility of synthesized peptides; type: physicochemical
[6] = combinatorial peptide-phage display library; cited from earlier work

Row | Compound | binding of ochratoxin A-HRP, amine-coupled peptide [3] | binding of ochratoxin A-HRP, thiol-coupled peptide [3] | Kd [4] | on and off rates [4] | binding affinity (in words) [4] | non-specific binding to unconjugated BSA (BSA) | water solubility [5] | other results
1 | C[C@@H]1Cc2c(Cl)cc(C(=O)N[C@@H](Cc3ccccc3)C(=O)O)c(O)c2C(=O)O1 [ochratoxin A] | – | – | – | – | – | – | – | Kd ((human) albumin; high affinity binding sites, read-out: KD, high affinity binding site): ~0.019 µM; Kd ((human) albumin; weak affinity sites, read-out: KD, weak affinity site): ~1 µM
2 | Leu-Leu-Ala-Arg-NH2 | – | – | – | – | – | – | – | Kd [1]: ~8.3 µM; Kd [2]: ~3.4 µM
3 | N'-Cys-Ser-Ile-Val-Glu-Asp-Gly-Lys-C' [octapeptide] | ochratoxin A-HRP binds | much higher binding signals | 11.8 µM | fast on and off rates | weak affinity interactions; also recorded: weak binding affinity | no non-specific binding | water soluble | –
4 | N'-Gly-Pro-Ala-Gly-Ile-Asp-Gly-Pro-Ala-Gly-Ile-Arg-Cys-C' [13-mer peptide] | decreased | good binding capacity | 15.7 µM | fast on and off rates; also recorded: faster on and off rates | weak binding affinity | no non-specific binding | water soluble | binding affinity (in words) ([4]; listed as 13-mer): weak affinity interactions
5 | N'-Ser-Asn-Leu-His-Pro-Lys-C' | – | – | – | – | – | – | – | Kd [6]: ~2.9 µM
